What was measured:
[1] = target: T1, S. aureus TarI (Staphylococcus aureus, UniProt Q2G1C0); experiment: In vitro enzyme inhibition assay, TarI (HPLC); format: biochemical; conditions: targocil 50 μg/mL; enzyme 200 nM
T1 construct: made in house
T1 sequence (Q2G1C0 1-238): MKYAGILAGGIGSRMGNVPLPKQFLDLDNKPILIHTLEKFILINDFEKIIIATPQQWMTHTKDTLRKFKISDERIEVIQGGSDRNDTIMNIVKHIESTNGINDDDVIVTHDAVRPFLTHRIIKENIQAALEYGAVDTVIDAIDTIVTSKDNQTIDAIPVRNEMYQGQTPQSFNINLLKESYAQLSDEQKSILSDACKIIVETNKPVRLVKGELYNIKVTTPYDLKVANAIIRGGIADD
Method: (§1) S. aureus TarB, D, F, I, and L were cloned, overexpressed and purified as described previously (S. Brown, Y. H. Zhang, S. Walker, Chemistry & Biology 15, 12, Jan. 2008.) Radiometric in vitro assays were run to test the inhibitory effects of targocil on Tar B, D, F, and L, while TarI was assayed for targocil inhibition using an HPLC assay using conditions similar to those previously reported (ibid). See below for exact reaction conditions. […] In each case, a reaction with no targocil served as a negative control (active enzymatic reaction) and a reaction with heat-treated enzyme served as a positive control (no enzymatic reaction). Targocil was incubated with all reaction components except the substrates at room temperature. After 10 minutes, substrates were added and the reactions were allowed to proceed for 60 minutes. The reactions were quenched with DMF and the products were imaged/monitored as previously described (ibid).
TarI in vitro inhibition assay protocol and data. […] The reactions were monitored by HPLC using an anion exchange column, Phenosphere 5μ SAX 250×4.6 mm, 5 μm (Phenomenex), to record the disappearance of the CTP peak and production of a new CDP ribitol peak (Buffer A: 5 mM NH4H2PO4, pH 2.8, Buffer B: 750 mM NH4H2PO4, pH 3.7, isocratic elution 75% B over 20 minutes, UV monitored at 271 nm).

[2] = test system: S. aureus RN4220 invasion of human corneal epithelial cells (HCEC); experiment: Human corneal epithelial cell (HCEC) invasion / internalization model; format: cell-based, Staphylococcus aureus; conditions: wildtype S. aureus grown with 8×MIC (20 μg/mL) of targocil
Method: An overnight culture of S. aureus RN4220 and its isogenic ΔtarO strain were grown with shaking at 37° C. in either 1% DMSO or in the presence of 8×MIC (20 μg/mL) of targocil 1% DMSO. Human corneal epithelial cells (HCEC) were cultured separately in 24-well plates. Prior to incubation with HCEC, the bacteria were washed twice with keratinocyte culture media—serum free (KBM-SFM) including 8×MIC of targocil in 1% DMSO or 1% DMSO. The S. aureus strains (approximately 10^8 CFU in 1 mL of KBM-SFM including either 8×MIC of targocil 1% DMSO or 1% DMSO) were then applied to the HCEC monolayers. (The initial inoculum of each group was determined by serial dilution and plate counting.) Following incubation at 37° C. for 1 h, bacteria were removed and the monolayers were washed twice with Hank's balanced salt solution (HBSS), and covered with 1 mL of KBM-SFM containing gentamycin (100 μg/mL) and incubated at 37° C. for 1 h to kill residual extracellular bacteria. The monolayers were washed twice with HBSS, lysed, and homogenized in 1 mL of lysis solution (0.25% trypsin-0.025% Triton X-100). Lysates were serially diluted and plated on brain-heart infusion agar, and colonies were enumerated following overnight incubation at 37° C.
The data workup was done by first determining the percentage of internalized bacteria compared to the initial inoculum. […]

[3] = target: T2, S. aureus TarD (Staphylococcus aureus, UniProt Q2G2X2); experiment: In vitro enzyme inhibition assay, TarD (radiometric); format: biochemical; conditions: targocil 50 μg/mL; enzyme 200 nM
T2 construct: made in house
T2 sequence (Q2G2X2 1-132): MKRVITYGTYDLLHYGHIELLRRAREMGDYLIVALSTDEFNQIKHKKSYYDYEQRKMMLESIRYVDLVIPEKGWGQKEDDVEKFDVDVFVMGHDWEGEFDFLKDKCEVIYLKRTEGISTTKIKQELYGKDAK
Method: as §1
TarD in vitro inhibition assay protocol and data. Each 3 μL reaction contained 50 mM HEPES pH 8, 10 mM MgCl2, 1 mM DTT, 1 μM [14C]-glycerol-3-phosphate, 9 μM glycerol-3-phosphate, 20 μM CTP, 200 nM TarD. The reactions were quenched with 3 μL DMF, and 2 μL of the reaction mixture were combined with 2 μL 2× loading dye (40% glycerol, 0.2% bromophenol blue) and loaded onto a 20% acrylamide/0.25M TBE gel as described previously (ibid.). […]

CCN(CC)c1nc2c(S(=O)(=O)c3ccccc3)nnn2c2ccc(Cl)cc12 [7-chloro-N,N-diethyl-3-(phenylsulfonyl)-[1,2,3]triazolo[1,5-a]quinazolin-5-amine]
inhibition of TarI [1]: None of these enzymes was inhibited
invasion of HCECs by targocil-treated bacteria [2]: behaved similarly to the ΔtarO strain
inhibition of TarD [3]: None of these enzymes was inhibited

— patent publication US8598342B2, “Methods and compounds for antimicrobial intervention” (President and Fellows of Harvard College, priority 2008, dated 2013)
